Test results: patent US20250129430A1, “HIGH ATP-AFFINITY PROTEIN AS THERAPEUTIC TARGET FOR INTRACTABLE CANCER MOLECULAR SUBTYPES AND INHIBITOR THEREOF” (VeraVerse Co., Ltd., priority 2021, published 2025)

Columns and labels:
Test in all cases: Cell viability drug screen, 12-point dose-response AUC
Assay type in all cases: cell-based, human
FU97 = tested on: FU97; set-up: Average Area Under the Viability Curve (AUC), AUC norm value: scale not given here; details: FU97 cells, 72 hours
Outline: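 Trapezoidal AUC of a 12-point, DMSO-normalized dose-response curve. Luminescent viability was measured after 72 h of exposure at 37° C to half-log serial dilutions (0.5% DMSO control), dosed 24 h after plating FU97 cells at 5×10^3 per well.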

MKN28 = MKN28 cells, 72 hours
Outline: (§1)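 AUC comes from 12-point half-log dose–response curves, normalized to DMSO-treated cells and integrated trapezoidally, repeats averaged. Luminescent viability read after 72 h compound exposure at 37 °C; cells plated 5×10^3 per well 24 h before dosing.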

NCI_N87 = NCI_N87 cells, 72 hours
Outline: as §1

SNU601 = SNU601 cells, 72 hours
Outline: as §1

NCC19 = NCC19 cells, 72 hours
Outline: as §1

Hs746T = details: 72 hours; for Average Area Under the Viability Curve (AUC), AUC norm value: Hs746T cells (SEM subtype)
Outline: as §1

NCC59 = NCC59 cells, 72 hours
Outline: as §1

YCC3 = YCC3 cells, 72 hours
Outline: as §1

SNU484 = details: 72 hours; for Average Area Under the Viability Curve (AUC), AUC norm value: SNU484 cells (SEM subtype)
Outline: as §1

SK4 = details: 72 hours; for Average Area Under the Viability Curve (AUC), AUC norm value: SK4 cells (SEM subtype)
Outline: as §1

SNU668 = details: 72 hours; for Average Area Under the Viability Curve (AUC), AUC norm value: SNU668 cells (SEM subtype)
Outline: as §1

MKN74 = MKN74 cells, 72 hours
Outline: (§2)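 Dose-response AUC reflects 72 h drug exposure of gastric cancer cells in a 12-point, half-log format, with viability read by luminescence and normalized to DMSO (0.5%).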

SNU638 = SNU638 cells, 72 hours
Outline: as §1

KATO3 = KATO3 cells, 72 hours
Outline: as §1

SNU1 = SNU1 cells, 72 hours
Outline: as §1

MKN1 = MKN1 cells, 72 hours
Outline: as §1

SNU16 = SNU16 cells, 72 hours
Outline: as §1

SNU620 = SNU620 cells, 72 hours
Outline: as §1

NCC24 = NCC24 cells, 72 hours
Outline: as §1

MKN45 = details: 72 hours; for Average Area Under the Viability Curve (AUC), AUC norm value: MKN45 cells (non-SEM subtype)
Outline: as §2

SNU719 = SNU719 cells, 72 hours
Outline: as §2

SNU1967 = SNU1967 cells, 72 hours
Outline: as §1

NCC20 = NCC20 cells, 72 hours
Outline: as §1

SNU216 = details: 72 hours; for Average Area Under the Viability Curve (AUC), AUC norm value: SNU216 cells (non-SEM subtype)
Outline: as §2

AGS = details: 72 hours; for Average Area Under the Viability Curve (AUC), AUC norm value: AGS cells (non-SEM subtype)
Outline: as §2

YCC2 = YCC2 cells, 72 hours
Outline: as §1

OCUM1 = OCUM1 cells, 72 hours
Outline: as §1

SNU1750 = details: 72 hours; for Average Area Under the Viability Curve (AUC), AUC norm value: SNU1750 cells (SEM subtype)
Outline: as §1

YCC11 = details: 72 hours; for Average Area Under the Viability Curve (AUC), AUC norm value: YCC11 cells (SEM subtype)
Outline: as §1

Structure (SMILES): O=C(/C=C/c1cccc(S(=O)(=O)Nc2ccccc2)c1)NO [Belinostat (PXD101), Belinostat]
- Average Area Under the Viability Curve (AUC), AUC norm value (FU97): −0.9726
- Average Area Under the Viability Curve (AUC), AUC norm value (MKN28): −0.3952
- Average Area Under the Viability Curve (AUC), AUC norm value (NCI_N87): 0.02343
- Average Area Under the Viability Curve (AUC), AUC norm value (SNU601): 1.495
- Average Area Under the Viability Curve (AUC), AUC norm value (NCC19): 1.206
- Average Area Under the Viability Curve (AUC), AUC norm value (Hs746T): 0.5598
- Average Area Under the Viability Curve (AUC), AUC norm value (NCC59): 2.683
- Average Area Under the Viability Curve (AUC), AUC norm value (YCC3): 1.065
- Average Area Under the Viability Curve (AUC), AUC norm value (SNU484): 0.9966
- Average Area Under the Viability Curve (AUC), AUC norm value (SK4): −0.3048
- Average Area Under the Viability Curve (AUC), AUC norm value (SNU668): 0.6908
- Average Area Under the Viability Curve (AUC), AUC norm value (MKN74): −0.1835
- Average Area Under the Viability Curve (AUC), AUC norm value (SNU638): −0.5011
- Average Area Under the Viability Curve (AUC), AUC norm value (KATO3): 0.7544
- Average Area Under the Viability Curve (AUC), AUC norm value (SNU1): 0.1147
- Average Area Under the Viability Curve (AUC), AUC norm value (MKN1): 0.9981
- Average Area Under the Viability Curve (AUC), AUC norm value (SNU16): −1.577
- Average Area Under the Viability Curve (AUC), AUC norm value (SNU620): −1.0681
- Average Area Under the Viability Curve (AUC), AUC norm value (NCC24): −1.095
- Average Area Under the Viability Curve (AUC), AUC norm value (MKN45): 2.493
- Average Area Under the Viability Curve (AUC), AUC norm value (SNU719): 2.329
- Average Area Under the Viability Curve (AUC), AUC norm value (SNU1967): −0.3122
- Average Area Under the Viability Curve (AUC), AUC norm value (NCC20): 0
- Average Area Under the Viability Curve (AUC), AUC norm value (SNU216): −0.2541
- Average Area Under the Viability Curve (AUC), AUC norm value (AGS): −0.9372
- Average Area Under the Viability Curve (AUC), AUC norm value (YCC2): 0.1706
- Average Area Under the Viability Curve (AUC), AUC norm value (OCUM1): −0.225
- Average Area Under the Viability Curve (AUC), AUC norm value (SNU1750): −0.902
- Average Area Under the Viability Curve (AUC), AUC norm value (YCC11): −0.5556

Structure (SMILES): O=C(CCCCCCC(=O)Nc1ccccc1)NO [Vorinostat (SAHA), Vorinostat]
- Average Area Under the Viability Curve (AUC), AUC norm value (FU97): 0.2975
- Average Area Under the Viability Curve (AUC), AUC norm value (MKN28): −0.08142
- Average Area Under the Viability Curve (AUC), AUC norm value (NCI_N87): 0.8986
- Average Area Under the Viability Curve (AUC), AUC norm value (SNU601): 2.84
- Average Area Under the Viability Curve (AUC), AUC norm value (NCC19): 0.2993
- Average Area Under the Viability Curve (AUC), AUC norm value (Hs746T): −0.04774
- Average Area Under the Viability Curve (AUC), AUC norm value (NCC59): 1.01
- Average Area Under the Viability Curve (AUC), AUC norm value (YCC3): 1.034
- Average Area Under the Viability Curve (AUC), AUC norm value (SNU484): 1.041
- Average Area Under the Viability Curve (AUC), AUC norm value (SK4): 0.6434
- Average Area Under the Viability Curve (AUC), AUC norm value (SNU668): 0.4303
- Average Area Under the Viability Curve (AUC), AUC norm value (MKN74): −0.07666
- Average Area Under the Viability Curve (AUC), AUC norm value (SNU638): −0.4313
- Average Area Under the Viability Curve (AUC), AUC norm value (KATO3): 0
- Average Area Under the Viability Curve (AUC), AUC norm value (SNU1): −0.2152
- Average Area Under the Viability Curve (AUC), AUC norm value (MKN1): 0.4282
- Average Area Under the Viability Curve (AUC), AUC norm value (SNU16): −0.7875
- Average Area Under the Viability Curve (AUC), AUC norm value (SNU620): 0.08594
- Average Area Under the Viability Curve (AUC), AUC norm value (NCC24): −0.3421
- Average Area Under the Viability Curve (AUC), AUC norm value (MKN45): 2.416
- Average Area Under the Viability Curve (AUC), AUC norm value (SNU719): 1.843
- Average Area Under the Viability Curve (AUC), AUC norm value (SNU1967): −0.2574
- Average Area Under the Viability Curve (AUC), AUC norm value (NCC20): −0.9328
- Average Area Under the Viability Curve (AUC), AUC norm value (SNU216): −0.04999
- Average Area Under the Viability Curve (AUC), AUC norm value (AGS): −0.5947
- Average Area Under the Viability Curve (AUC), AUC norm value (YCC2): 0.09328
- Average Area Under the Viability Curve (AUC), AUC norm value (OCUM1): −0.5166
- Average Area Under the Viability Curve (AUC), AUC norm value (SNU1750): −0.5737
- Average Area Under the Viability Curve (AUC), AUC norm value (YCC11): −0.2285

Structure (SMILES): CC(/C=C/C(=O)NO)=C\[C@@H](C)C(=O)c1ccc(N(C)C)cc1 [Trichostatin A (TSA), Trichostatin A]
- area under the viability curve (AUC), normalized (FU97; 12-point dose-response): −1.181
- area under the viability curve (AUC), normalized (MKN28; 12-point dose-response): −0.6515
- area under the viability curve (AUC), normalized (NCI_N87; 12-point dose-response): −0.01232
- area under the viability curve (AUC), normalized (SNU601; 12-point dose-response): 1.155
- area under the viability curve (AUC), normalized (NCC19; 12-point dose-response): −0.3026
- area under the viability curve (AUC), normalized (Hs746T; Hs746T cells, 12-point dose-response): 0.6621
- area under the viability curve (AUC), normalized (NCC59; 12-point dose-response): 1.784
- area under the viability curve (AUC), normalized (YCC3; 12-point dose-response): 1.17
- area under the viability curve (AUC), normalized (SNU484; SNU484 cells, 12-point dose-response): 0.4515
- area under the viability curve (AUC), normalized (SK4; SK4 cells, 12-point dose-response): 0.7897
- area under the viability curve (AUC), normalized (SNU668; SNU668 cells, 12-point dose-response): 0.1344
- area under the viability curve (AUC), normalized (MKN74; 12-point dose-response): 0.3005
- area under the viability curve (AUC), normalized (SNU638; 12-point dose-response): −0.2758
- area under the viability curve (AUC), normalized (KATO3; 12-point dose-response): −0.1555
- area under the viability curve (AUC), normalized (SNU1; 12-point dose-response): −0.9946
- area under the viability curve (AUC), normalized (MKN1; 12-point dose-response): 0.4223
- area under the viability curve (AUC), normalized (SNU16; 12-point dose-response): 1.141
- area under the viability curve (AUC), normalized (SNU620; 12-point dose-response): −1.343
- area under the viability curve (AUC), normalized (NCC24; 12-point dose-response): −1.307
- area under the viability curve (AUC), normalized (MKN45; MKN45 cells, 12-point dose-response): 2.215
- area under the viability curve (AUC), normalized (SNU719; 12-point dose-response): 1.883
- area under the viability curve (AUC), normalized (SNU1967; 12-point dose-response): −1.472
- area under the viability curve (AUC), normalized (NCC20; 12-point dose-response): −1.842
- area under the viability curve (AUC), normalized (SNU216; SNU216 cells, 12-point dose-response): 0
- area under the viability curve (AUC), normalized (AGS; AGS cells, 12-point dose-response): −1.137
- area under the viability curve (AUC), normalized (YCC2; 12-point dose-response): 0.2017
- area under the viability curve (AUC), normalized (OCUM1; 12-point dose-response): 0.1474
- area under the viability curve (AUC), normalized (SNU1750; SNU1750 cells, 12-point dose-response): −1.0771
- area under the viability curve (AUC), normalized (YCC11; YCC11 cells, 12-point dose-response): −0.2695
